Measurements from US6552080B1, “Fungicidal compounds having a fluorovinyl-or fluoropropenyl-oxyphenyloxime moiety and process for the preparation thereof” (Korea Research Institute of Chemical Technology, priority 1999, dated 2003).
Like-named read-outs stand apart in the source and are kept apart here.

How the values were obtained:
Phytophthora infestans = type: in vivo; conditions: Tomato Late Blight; concentration 50 ppm
Puccinia recondita = experiment: Fungicidal activity against Wheat Leaf Rust (WLR) disease; type: in vivo; conditions: Wheat Leaf Rust
Rhizoctonia solani AG-1 = experiment: Fungicidal activity against Rice Sheath Blight (RSB) disease; conditions: Rice Sheath Blight
Botrytis cinerae = experiment: Fungicidal activity against Cucumber Gray Mold Rot (CGM) disease; type: in vivo; conditions: Cucumber Gray Mold Rot; concentration 50 ppm
[1] = test system: Pyricularia oryzae Carvara KA301; type: in vivo; conditions: Rice Blast
Erysiphae graminis = experiment: Fungicidal activity against Barley Powdery Mildew (BPM) disease; type: in vivo; conditions: Barley Powdery Mildew

| SMILES | TLB (Fungicidal Activities, C.V.) (Phytophthora infestans) [%] | WLR (Fungicidal Activities, C.V.) (Puccinia recondita; concentration 2 ppm) [%] | WLR (Fungicidal Activities, C.V.) (Puccinia recondita; concentration 50 ppm) [%] | RSB (Fungicidal Activities, C.V.) (Rhizoctonia solani AG-1; concentration 50 ppm) [%] | CGM (Fungicidal Activities, C.V.) (Botrytis cinerae) [%] | RCV (Fungicidal Activities, C.V.) ([1]; concentration 2 ppm) [%] | RCV (Fungicidal Activities, C.V.) ([1]; concentration 50 ppm) [%] | BPM (Fungicidal Activities, C.V.) (Erysiphae graminis; concentration 2 ppm) [%] | BPM (Fungicidal Activities, C.V.) (Erysiphae graminis; concentration 50 ppm) [%] | RSB (Fungicidal Activities, C.V.) (Rhizoctonia solani AG-1; concentration 2 ppm) [%] | WLR (Fungicidal Activities, C.V.) (Puccinia recondita; concentration 10 ppm) [%] | RSB (Fungicidal Activities, C.V.) (Rhizoctonia solani AG-1; concentration 10 ppm) [%] | RCV (Fungicidal Activities, C.V.) ([1]; concentration 10 ppm) [%] | BPM (Fungicidal Activities, C.V.) (Erysiphae graminis; concentration 10 ppm) [%] |
| --- | --- | --- | --- | --- | --- | --- | --- | --- | --- | --- | --- | --- | --- | --- |
| CON=C(C(=O)OC)c1ccccc1CON=Cc1cccc(OC(F)=C(c2ccccc2)C(F)(F)F)c1 [Compound 131] | 4 | 98 | 100 | 55 | 42 | 43 | 80 | 76 | 100 |  |  |  |  |  |
| CON=C(C(=O)OC)c1ccccc1CON=Cc1cccc(OC(F)=C(c2ccc(F)cc2)C(F)(F)F)c1 [Compound 135] | 0 | 94 | 100 | 61 | 71 | 43 | 86 | 93 | 100 | 20 |  |  |  |  |
| CNC(=O)C(=NOC)c1ccccc1CON=Cc1cccc(OC(F)=C(c2ccccc2)C(F)(F)F)c1 [Compound 139] | 46 | 93 | 98 | 20 | 0 | 53 | 100 | 97 | 98 | 10 |  |  |  |  |
| CNC(=O)C(=NOC)c1ccccc1CON=Cc1cccc(OC(F)=C(c2cccc(C)c2)C(F)(F)F)c1 [Compound 140] | 0 | 0 | 100 | 64 | 0 | 86 | 97 |  | 86 |  |  |  |  |  |
| CNC(=O)C(=NOC)c1ccccc1CON=Cc1cccc(OC(F)=C(c2cccc(OC)c2)C(F)(F)F)c1 [Compound 143] | 0 | 36 | 90 | 58 | 0 | 83 | 100 | 0 | 93 |  |  |  |  |  |
| CCOc1ccc(C(=C(F)Oc2cccc(C=NOCc3ccccc3C(=NOC)C(=O)NC)c2)C(F)(F)F)cc1 [Compound 144] | 0 |  | 86 | 47 | 0 | 88 | 96 | 0 | 95 |  |  |  |  |  |
| CNC(=O)C(=NOC)c1ccccc1CON=Cc1cccc(OC(F)=C(c2ccc(F)cc2)C(F)(F)F)c1 [Compound 145] | 0 | 83 | 100 | 64 | 0 | 83 | 100 | 33 | 100 |  |  |  |  |  |
| COC=C(C(=O)OC)c1ccccc1CON=C(C)c1cccc(OC(F)=C(c2ccccc2)C(F)(F)F)c1 [Compound 150] | 50 | 95 | 100 | 92 | 44 | 83 | 100 | 100 | 100 | 55 | 100 | 65 | 100 | 100 |
